Measured values reported in PMC9169622 (Proceedings of the National Academy of Sciences of the …, 2022).

How the values were obtained:
GPR126 [1] = molecular target: T1, GPR126 (Homo sapiens, UniProt Q86SQ4); assay: cell-based; type: cell-based
T1 sequence (Q86SQ4 38-1221): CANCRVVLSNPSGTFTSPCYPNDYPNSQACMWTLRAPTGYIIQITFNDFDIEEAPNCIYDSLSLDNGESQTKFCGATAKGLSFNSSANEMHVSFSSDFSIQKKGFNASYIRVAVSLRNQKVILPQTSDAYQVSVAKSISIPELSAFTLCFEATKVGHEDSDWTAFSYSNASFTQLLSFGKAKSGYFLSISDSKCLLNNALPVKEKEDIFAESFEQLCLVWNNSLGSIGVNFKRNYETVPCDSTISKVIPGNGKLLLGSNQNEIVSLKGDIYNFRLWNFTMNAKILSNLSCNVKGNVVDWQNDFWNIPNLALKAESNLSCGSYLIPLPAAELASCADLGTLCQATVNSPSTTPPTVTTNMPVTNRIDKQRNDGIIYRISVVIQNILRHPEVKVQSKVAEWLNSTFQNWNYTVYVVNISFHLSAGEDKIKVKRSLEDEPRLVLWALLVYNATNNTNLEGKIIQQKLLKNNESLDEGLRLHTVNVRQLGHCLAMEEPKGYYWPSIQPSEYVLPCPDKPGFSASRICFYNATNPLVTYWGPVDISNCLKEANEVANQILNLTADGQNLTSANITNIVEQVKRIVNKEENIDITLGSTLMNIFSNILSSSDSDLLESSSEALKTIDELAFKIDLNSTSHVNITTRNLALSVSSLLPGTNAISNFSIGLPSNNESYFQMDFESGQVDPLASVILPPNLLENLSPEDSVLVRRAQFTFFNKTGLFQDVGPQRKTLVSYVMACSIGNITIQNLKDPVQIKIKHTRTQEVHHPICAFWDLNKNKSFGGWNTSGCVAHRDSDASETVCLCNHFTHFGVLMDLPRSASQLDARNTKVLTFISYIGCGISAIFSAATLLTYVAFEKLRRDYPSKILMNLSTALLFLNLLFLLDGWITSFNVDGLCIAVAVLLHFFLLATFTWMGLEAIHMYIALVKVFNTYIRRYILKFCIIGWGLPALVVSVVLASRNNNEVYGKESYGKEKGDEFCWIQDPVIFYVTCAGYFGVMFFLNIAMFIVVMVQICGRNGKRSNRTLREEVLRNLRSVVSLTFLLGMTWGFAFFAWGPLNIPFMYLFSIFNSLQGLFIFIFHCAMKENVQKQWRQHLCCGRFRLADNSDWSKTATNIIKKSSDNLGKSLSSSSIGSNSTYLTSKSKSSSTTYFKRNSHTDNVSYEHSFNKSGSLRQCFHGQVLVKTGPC

MDA-MB-231 cells = type: cell-based, human
GPR126 [2] = molecular target: T1, GPR126; type: cell-based

| Structure (SMILES) | EC50 (GPR126 [1]) [µM] | Emax compared with 126-SMP, cAMP accumulation (GPR126 [1]) | effect on intracellular cAMP accumulation (GPR126 [1]) | effect of SRC inhibitor on progesterone-induced cell growth (MDA-MB-231 cells) | cAMP up-regulation compared to control vehicle (GPR126 [2]) |
| --- | --- | --- | --- | --- | --- |
| C[C@]12CC[C@H]3[C@@H](CCC4=CC(=O)CC[C@@]43C)[C@@H]1CC[C@@H]2O [testosterone] | 0.8 ± 0.06 | less than one-sixth | weak but detectable increase |  |  |
| COc1cc2ncnc(Nc3ccc(Oc4ccccc4)cc3)c2cc1OC [Src-I1] |  |  |  | significantly suppressed |  |
| C=C[C@@]1(C)CC(=O)[C@]2(O)[C@@]3(C)[C@@H](O)CCC(C)(C)[C@@H]3[C@H](O)[C@H](OC(C)=O)[C@@]2(C)O1 [Fsk, Forskolin] |  |  |  |  | approximately three times |
| C[C@]12CCC(=O)C=C1CC[C@@H]1[C@@H]2CC[C@@]2(C)[C@H]1CC[C@]2(O)C(=O)CO [11-deoxycortisol] | 1.4 ± 0.14 | less than one-sixth | weak but detectable increase |  |  |
